Consider four compounds from ChEMBL document CHEMBL1128154, “16,19-cis-murisolin and murisolin a, two novel bioactive mono-tetrahydrofuran annonaceous acetogenins from Asimina triloba seeds” (Bioorg Med Chem Lett, 1995).

Converted amounts (≈) assume the structure as drawn.

The first data set deals with A498. Briefly: Cytotoxicity against human kidney carcinoma A-498cell lines. It is filed as functional. The note with it: read-out: ED50 (the source's name).
Consider `COc1cccc2c1C(=O)c1c(O)c3c(c(O)c1C2=O)C[C@@](O)(C(=O)CO)C[C@@H]3O[C@H]1C[C@H](N)[C@H](O)[C@H](C)O1` [DOXORUBICIN], for which the EC50 turned out to be 2.26 ng/mL (≈ 4.16 nM).

As for `CCCCCCCCCCCCC(O)[C@H]1CC[C@H]([C@H](O)CCCCCCCCCCC(O)CC2=C[C@H](C)OC2=O)O1` (single isomer, unassigned), the EC50 came to 66.7 ng/mL (≈ 115 nM).

As to `CCCCCCCCCCCCC(O)C1CC[C@H]([C@H](O)CCCCCCCCCCC(O)CC2=C[C@H](C)OC2=O)O1` (single isomer, unassigned), the EC50 was found to be 4160 ng/mL (≈ 7160 nM).

Another data set relates to A549. Description: Cytotoxicity against human lung carcinoma A-549 cell lines. It is filed as functional. The settings on record: read-out: ED50 (the source's name).
As to `COc1cccc2c1C(=O)c1c(O)c3c(c(O)c1C2=O)C[C@@](O)(C(=O)CO)C[C@@H]3O[C@H]1C[C@H](N)[C@H](O)[C@H](C)O1` [DOXORUBICIN], the EC50 amounted to 3.99 ng/mL (≈ 7.34 nM).

`CCCCCCCCCCCCC(O)[C@H]1CC[C@H]([C@H](O)CCCCCCCCCCC(O)CC2=C[C@H](C)OC2=O)O1` (single isomer, unassigned): the EC50 was 0.00316 ng/mL (≈ 0.00544 nM).

Consider `CCCCCCCCCCCCC(O)C1CC[C@H]([C@H](O)CCCCCCCCCCC(O)CC2=C[C@H](C)OC2=O)O1` (single isomer, unassigned), for which the EC50 was 3.41 ng/mL (≈ 5.87 nM).

A further data set deals with HT-29. Description: Cytotoxicity against human colon adenocarcinoma HT-29 cell lines. It is filed as functional. The settings on record: read-out: ED50 (the source's name).
Regarding `COc1cccc2c1C(=O)c1c(O)c3c(c(O)c1C2=O)C[C@@](O)(C(=O)CO)C[C@@H]3O[C@H]1C[C@H](N)[C@H](O)[C@H](C)O1` [DOXORUBICIN], the EC50 worked out at 24.3 ng/mL (≈ 44.7 nM).

Regarding `CCCCCCCCCCCCC(O)C1CC[C@H]([C@H](O)CCCCCCCCCCC(O)CC2=C[C@H](C)OC2=O)O1` (single isomer, unassigned), the EC50 came out at 1270 ng/mL (≈ 2190 nM).

The next data set deals with MIA PaCa-2. Description: Cytotoxicity against human pancreatic carcinoma MIA PaCa-2 cell lines. In kind it is functional. The settings on record: read-out: ED50 (the source's name).
Consider `COc1cccc2c1C(=O)c1c(O)c3c(c(O)c1C2=O)C[C@@](O)(C(=O)CO)C[C@@H]3O[C@H]1C[C@H](N)[C@H](O)[C@H](C)O1` [DOXORUBICIN], for which the EC50 was determined as 1.36 ng/mL (≈ 2.5 nM).

For the compound `CCCCCCCCCCCCC(O)[C@@H]1CC[C@H]([C@H](O)CCCCCCCCCCC(O)CC2=C[C@H](C)OC2=O)O1` (single isomer, unassigned), the EC50 was 1.5 ng/mL (≈ 2.58 nM).

Take `CCCCCCCCCCCCC(O)[C@H]1CC[C@H]([C@H](O)CCCCCCCCCCC(O)CC2=C[C@H](C)OC2=O)O1` (single isomer, unassigned): the EC50 worked out at 51.8 ng/mL (≈ 89.2 nM).

For `CCCCCCCCCCCCC(O)C1CC[C@H]([C@H](O)CCCCCCCCCCC(O)CC2=C[C@H](C)OC2=O)O1` (single isomer, unassigned), the EC50 is 15.3 ng/mL (≈ 26.3 nM).

The subject of another data set is MCF7. Description: Cytotoxicity against human breast carcinoma MCF-7 cell lines. In kind it is functional. The note with it: read-out: ED50 (the source's name).
For the compound `COc1cccc2c1C(=O)c1c(O)c3c(c(O)c1C2=O)C[C@@](O)(C(=O)CO)C[C@@H]3O[C@H]1C[C@H](N)[C@H](O)[C@H](C)O1` [DOXORUBICIN], the EC50 is 420 ng/mL (≈ 773 nM).

Take `CCCCCCCCCCCCC(O)[C@@H]1CC[C@H]([C@H](O)CCCCCCCCCCC(O)CC2=C[C@H](C)OC2=O)O1` (single isomer, unassigned): the EC50 worked out at 3150 ng/mL (≈ 5420 nM).

With `CCCCCCCCCCCCC(O)[C@H]1CC[C@H]([C@H](O)CCCCCCCCCCC(O)CC2=C[C@H](C)OC2=O)O1` (single isomer, unassigned), the EC50 was 5400 ng/mL (≈ 9300 nM).

For `CCCCCCCCCCCCC(O)C1CC[C@H]([C@H](O)CCCCCCCCCCC(O)CC2=C[C@H](C)OC2=O)O1` (single isomer, unassigned), the EC50 amounted to 15.8 ng/mL (≈ 27.2 nM).

Tested on in a further data set: not listed separately
Description: Lethality in Brine shrimp lethality test. The settings on record: artemia.
Usually LC50 stands for the concentration lethal to half of the exposed cells or organisms. As to `CCCCCCCCCCCCC(O)[C@@H]1CC[C@H]([C@H](O)CCCCCCCCCCC(O)CC2=C[C@H](C)OC2=O)O1` (single isomer, unassigned), the LC50 amounted to 207 ng/mL (≈ 356 nM).

`CCCCCCCCCCCCC(O)[C@H]1CC[C@H]([C@H](O)CCCCCCCCCCC(O)CC2=C[C@H](C)OC2=O)O1` (single isomer, unassigned): the LC50 came to 183 ng/mL (≈ 315 nM).

Turning to `CCCCCCCCCCCCC(O)C1CC[C@H]([C@H](O)CCCCCCCCCCC(O)CC2=C[C@H](C)OC2=O)O1` (single isomer, unassigned), the LC50 was 346 ng/mL (≈ 596 nM).

A further data set has as its system PC-3. Description: Cytotoxicity against human prostate adenocarcinoma PC-3 cell lines. It is filed as functional. The note with it: read-out: ED50 (the source's name).
Consider `COc1cccc2c1C(=O)c1c(O)c3c(c(O)c1C2=O)C[C@@](O)(C(=O)CO)C[C@@H]3O[C@H]1C[C@H](N)[C@H](O)[C@H](C)O1` [DOXORUBICIN], for which the EC50 worked out at 34.9 ng/mL (≈ 64.2 nM).

Turning to `CCCCCCCCCCCCC(O)[C@@H]1CC[C@H]([C@H](O)CCCCCCCCCCC(O)CC2=C[C@H](C)OC2=O)O1` (single isomer, unassigned), the EC50 came to 2360 ng/mL (≈ 4060 nM).

With `CCCCCCCCCCCCC(O)[C@H]1CC[C@H]([C@H](O)CCCCCCCCCCC(O)CC2=C[C@H](C)OC2=O)O1` (single isomer, unassigned), the EC50 was 8410 ng/mL (≈ 14500 nM).

Turning to `CCCCCCCCCCCCC(O)C1CC[C@H]([C@H](O)CCCCCCCCCCC(O)CC2=C[C@H](C)OC2=O)O1` (single isomer, unassigned), the EC50 worked out at 1420 ng/mL (≈ 2440 nM).
